Laboratory results from patent publication US6569902B2, “Nitrone inhibition of cancer development” (Oklahoma Medical Research Foundation, priority 2000, dated 2003).
Where two headings read alike, the source gives them in different places.

What was measured:
rats fed the CDAA diet = conditions: cited from earlier work
[1] = test system: GST-P-positive lesions in livers of male Wistar rats fed the CDAA diet; assay: Example 2: numbers and sizes of GST-P-positive liver lesions, CDAA diet for 16 weeks; format: in vivo, rat; conditions: for effect on the number or sizes of the GST-P-positive lesions: CDAA diet
Procedure: Animals. A total of 110 male Wistar rats were obtained at 5 weeks of age from Charles River Japan, Inc., Atsugi, Kanagawa, Japan. Experimentation began after a 1-week acclimation on a basal diet (CE-2 diet, Clea Japan, Meguro, Tokyo, Japan). Rats were housed 5 each in plastic cages with white flake bedding (Kansai Animal Corp., City of Kyoto, Kyoto, Japan) in a standard atmosphere (temperature, 25±3° C.; relative humidity, 55±8%; ventilation, 10-15/hour; and a 12-hour dark/light cycle). Free access to food and tap water was allowed throughout the acclimation and experimental periods.
Diets and chemicals. The CDAA diet and its control, a choline-supplemented, L-amino acid-defined (CSAA) diet (Nakae et al. 1992; and Nakae et al. 1990) were obtained from Dyets, Inc., Bethlehem, Pa. […] 2-Sulfoxy-PBN (2-SPBN) was purchased from Aldrich Chemical Co. (Milwaukee, Wis.).
(§1) Animal experiment. After acclimation, rats were divided equally into 22 groups consisting of 5 animals each. Animals in group 1 received the CDAA diet alone. […] Groups 5-7, 8-10, 11-13 and 14-16 received the CDAA diet containing the low, middle, and high doses of 4-OHPBN, 3-OHPBN, 2-OHPBN and 2-SPBN, respectively. Group 17 received the CSAA diet alone. […] All animals were sacrificed by exsanguination under light ether anesthesia 16 weeks after commencement, and the livers excised. Slices 5-mm-thick were taken from the left lateral, median and right lateral lobes of the livers, fixed in 10% neutrally-buffered formalin for 24 hours and then embedded in paraffin. Five serial 4-μm-thick sections were prepared from each fixed liver slice and used for histological and immunohistochemical assessment as described below. The remaining portions of the livers were immediately frozen under liquid nitrogen and stored at −80° C. until use.
(§2) Histological and immunohistochemical assessments. Histological assessment was performed using sections routinely stained with hematoxylin/eosin and Masson's trichrome procedures. Gradation of fibrosis was quantitatively evaluated in groups 1, 4, 7, 10, 13, 16 and 17 by calculating the percent area occupied by collagen fiber stained blue by Masson's trichrome method using an IPAP image analyzing system (Sumika Technoservice Corp., City of Osaka, Osaka, Japan). GST-P-positive lesions were visualized immunohistochemically. Lesions consisting of more than 6 cells were quantified using the IPAP system as described elsewhere (Kishida et al. 2000). The amount of apoptosis and the cellular proliferative activity were determined in groups 1, 4, 7, 10, 13, 16 and 17, using the double staining techniques by combination of the GST-P immunohistochemistry as above with the in situ terminal deoxynucleotidyl transferase-mediated dUTP-biotin nick end-labeling method (Gold et al. 1994) and the enhanced polymer one-step staining method for proliferating cell nuclear antigen (Tsutsumi et al. 1995), respectively. Numbers of apoptotic and proliferating hepatocytes among the 1000-5000 hepatocytes in GST-P-positive lesions and 5000 hepatocytes in surrounding tissue were counted under light microscopy to obtain percentages that are hereafter referred as apoptotic and proliferative indices, respectively.
(§3) Statistics. Inter-group differences in quantitative data for multiple groups were recognized to be significant, when p values smaller than 0.05 were obtained by the Dunnett multiple comparison test employed after one-way analysis of variance to determine the variation among the group means followed by the Bartlett's test to determine the homogeniety of variance.

[2] = test system: livers of male Wistar rats fed the CDAA diet; assay: Example 2: oxidative hepatocyte injuries (8-OHdG, TBARS); format: in vivo, rat; conditions: for nuclear DNA 8-OHdG content increased by CDAA diet feeding: all doses, CDAA diet 16 weeks
Source text: as §1
Determination of oxidative hepatocyte injuries. Levels of oxidative damage to the hepatocytes were determined on frozen liver samples. Oxidative damage to nuclear DNA was assessed as previously described, using the amount of 8-hydroxydeoxyguanosine (8-OHdG) to 10^6 deoxyguanosine (dG) ratio as a parameter (Nakae et al. 1995). Oxidative injury to extra-nuclear components was assessed as described elsewhere, by determining picomole malondialdehyde equivalent (MDA eq.) levels of 2-thiobarbituric acid-reacting substances (TBARS) per milligram protein (Nakae et al. 1990).
as §3

[3] = test system: hepatocytes of male Wistar rats fed the CDAA diet; assay: Example 2: apoptotic and proliferative indices in GST-P-positive lesions and surrounding tissue; format: in vivo, rat; conditions: high dose 0.090%
Source text: as §1, §2, §3

[4] = test system: livers of male Wistar rats fed the CDAA diet; assay: Example 2: histological liver injury (fibrosis, fatty liver); format: in vivo, rat; conditions: high dose 0.090%, CDAA diet 16 weeks
Source text: as §1, §2, §3

[5] = test system: rat liver microsome peroxidation; conditions: read-out: IC50, inhibition of rat liver microsome peroxidation; cited from earlier work

## CCCCCCCCCCCCCCCCCCOC1=C(O)[C@@H]([C@@H](O)CO)OC1=O [2-O-octadecylascorbic acid]
Rats fed the CDAA diet; chronic feeding in the CDAA diet (Mizumoto et al. 1994)
  inhibition of rat hepatocarcinogenesis: inhibits rat hepatocarcinogenesis by chronic feeding in the CDAA diet greater than its hydrophilic parent, L-ascorbic acid

## CC(C)(C)[N+]([O-])=Cc1ccccc1O [2-OHPBN, 2-hydroxyphenyl N-tert-butylnitone]
[1]
  effect on the number or sizes of the GST-P-positive lesions: Neither 2-OHPBN nor 2-SPBN had any affect
[2]
  nuclear DNA 8-OHdG content increased by CDAA diet feeding: Neither 2-OHPBN nor 2-SPBN decreased
[2]; all three doses
  TBARS level enhanced by CDAA feeding: Neither 2-OHPBN nor 2-SPBN affected
[3]
  effect on apoptotic indices: Neither 2-OHPBN nor 2-SPBN altered
[4]
  grade of fibrosis versus group 1: no affect

## CC(C)(C)[N+]([O-])=Cc1ccccc1S(=O)(=O)O [2-SPBN, 2-sulfoxyphenyl N-tert-butylnitone]
[1]
  effect on the number or sizes of the GST-P-positive lesions: Neither 2-OHPBN nor 2-SPBN had any affect
[2]
  nuclear DNA 8-OHdG content increased by CDAA diet feeding: Neither 2-OHPBN nor 2-SPBN decreased
[2]; all three doses
  TBARS level enhanced by CDAA feeding: Neither 2-OHPBN nor 2-SPBN affected
[3]
  effect on apoptotic indices: Neither 2-OHPBN nor 2-SPBN altered
[4]
  grade of fibrosis versus group 1: no affect

## CC(C)(C)[N+]([O-])=Cc1cccc(O)c1 [3-OHPBN, 3-hydroxyphenyl N-tert-butylnitrone]
[1]; high dose 0.090% in CDAA diet
  sizes of GST-P-positive lesions, % of the group 1 value: 9%
[2]
  nuclear DNA 8-OHdG content increased by CDAA diet feeding: significantly inhibited
[2]; high dose 0.090% only
  TBARS level enhanced by CDAA feeding: significantly inhibited
[3]
  apoptotic index in the surrounding tissue, % of the group 1 value: about 40%
[4]
  grade of fibrosis versus group 1: significantly lower

## CC(C)(C)[N+]([O-])=Cc1ccc(O)cc1 [4-OHPBN, 4-hydroxyphenyl N-tert-butylnitrone]
[1]; high dose 0.090% in CDAA diet
  sizes of GST-P-positive lesions, % of the group 1 value: 18%
[1]; low dose 0.009% in CDAA diet
  sizes of GST-P-positive lesions, % of the group 1 value: 24%
[1]; middle dose 0.045% in CDAA diet
  sizes of GST-P-positive lesions, % of the group 1 value: 19%
[2]
  nuclear DNA 8-OHdG content increased by CDAA diet feeding: significantly inhibited
[2]; all three doses
  TBARS level enhanced by CDAA feeding: significantly exerted an effect
[3]
  apoptotic index in the surrounding tissue, % of the group 1 value: about 40%
  proliferative index in the lesions, % of the group 1 value: approximately 31%
  proliferative index in the surrounding tissue, % of the group 1 value: about 49%
[4]
  grade of fibrosis versus group 1: significantly lower

## CC(=O)Oc1ccccc1C(=O)O [Acetylsalicylic acid]
Rats fed the CDAA diet; not nearly as potent as PBN
  effect on nodule size, nodule number and 8-OHdG content: some effect

## Cc1c(C)c2c(c(C)c1O)CC[C@@](C)(CCC[C@H](C)CCC[C@H](C)CCCC(C)C)O2 [Alpha tocopherol]
Rats fed the CDAA diet; rat, in vivo
  effect on any of the parameters: very little effect

## Cc1cc(C(C)(C)C)c(O)c(C(C)(C)C)c1 [BHT]
[5]
  IC50: 6 µM

## O=C(CBr)c1ccc(Br)cc1 [BPB, p-bromophenocybromide]
Rats fed the CDAA diet; rat, in vivo
  activity in suppressing the size of the nodules: little activity

## CCCCCCCCCCCCCCCCCCOC1=C(O)C([C@@H](O)CO)OC1=O (stereo partly shown) [CV3611]
Rats fed the CDAA diet; 0.05% level
  lowering of nodule size: 44%

## c1ccc(Nc2ccc(Nc3ccccc3)cc2)cc1 [N,N′-diphenyl-p-phenylenediamine]
Rats fed the CDAA diet; livers of rats fed the CDAA diet (Nakae et al. 1994)
  effect on sizes and numbers of GST-P-positive lesions: reduces the sizes of GST-P-positive lesions without affecting their numbers

## CC(Cc1ccc(O)c(O)c1)C(C)Cc1ccc(O)c(O)c1 (stereo not shown) [NGDA, nordihydroguaiaric acid]
Rats fed the CDAA diet; 0.1% level
  lowering of nodule size: 39%

## Cc1c(C)c2c(c(C)c1O)CCC(C)(C(=O)O)O2 (stereo not shown) [Trolox]
Rats fed the CDAA diet; rat, in vivo
  effect on any of the parameters: very little effect
[5]
  IC50: 40 µM
